Data as given in the supplement of paper PMC10307832.

How the values were obtained:
Experiment in all cases: relative viability (nuclei count vs DMSO), 5 days (fraction); higher = more cells survive
[1] = compound: CN(C)C/C=C/C(=O)Nc1cc2c(Nc3ccc(F)c(Cl)c3)ncnc2cc1O[C@H]1CCOC1 [Afatinib] + CC(C)C[C@H](NC(=O)[C@H](Cc1ccccc1)NC(=O)c1cnccn1)B(O)O [Bortezomib] (partner 0.002 µM)
How it was run: (§1)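 For relative viability, nuclei counts in treated wells were divided by those in vehicle wells. Lung cancer cell lines had been pin-tool dosed in 1536-well plates the day after seeding and cultured for 5 days, then fixed and stained in one step (final 0.05% Triton X-100, 1% formaldehyde, 1 ug/ml Hoechst) and imaged at 4×. Doses were one drug alone or a fixed anchor-drug dose plus five library-drug doses (not always all listed) in √10 steps, and values are duplicate-plate medians.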

[2] = compound: CN(C)C/C=C/C(=O)Nc1cc2c(Nc3ccc(F)c(Cl)c3)ncnc2cc1O[C@H]1CCOC1 [Afatinib] + CS(=O)(=O)CCNCc1ccc(-c2ccc3ncnc(Nc4ccc(OCc5cccc(F)c5)c(Cl)c4)c3c2)o1 [Lapatinib] (partner 2 µM)
How it was run: as §1

[3] = compound: CN(C)C/C=C/C(=O)Nc1cc2c(Nc3ccc(F)c(Cl)c3)ncnc2cc1O[C@H]1CCOC1 [Afatinib] + NC(=O)Nc1cc(-c2cccc(F)c2)sc1C(=O)N[C@H]1CCCNC1 [AZD7762] (partner 0.2 µM)
How it was run: as §1

[4] = compound: CN(C)C/C=C/C(=O)Nc1cc2c(Nc3ccc(F)c(Cl)c3)ncnc2cc1O[C@H]1CCOC1 [Afatinib] + Nc1ncn([C@H]2C[C@H](O)[C@@H](CO)O2)c(=O)n1 [Decitabine] (partner 2 µM)
How it was run: as §1

Row | Cell Line | relative viability ([1]; first compound 0.005 µM) | relative viability ([1]; first compound 0.01581 µM) | relative viability ([1]; first compound 0.05 µM) | relative viability ([1]; first compound 0.1581 µM) | relative viability ([1]; first compound 0.5 µM) | relative viability ([2]; first compound 0.005 µM) | relative viability ([2]; first compound 0.01581 µM) | relative viability ([2]; first compound 0.05 µM) | relative viability ([2]; first compound 0.1581 µM) | relative viability ([2]; first compound 0.5 µM) | relative viability ([3]; first compound 0.005 µM) | relative viability ([3]; first compound 0.01581 µM) | relative viability ([3]; first compound 0.05 µM) | relative viability ([3]; first compound 0.1581 µM) | relative viability ([3]; first compound 0.5 µM) | relative viability ([4]; first compound 0.005 µM) | relative viability ([4]; first compound 0.01581 µM) | relative viability ([4]; first compound 0.05 µM) | relative viability ([4]; first compound 0.1581 µM) | relative viability ([4]; first compound 0.5 µM)
1 | 201T | 1.09 | 0.921 | 1.02 | 1.07 | 1.13 | 1.07 | 1.04 | 0.904 | 1.01 | 1.08 | 0.483 | 0.626 | 0.599 | 0.667 | 0.62 | 0.857 | 0.867 | 0.844 | 0.78 | 0.822
2 | A549 |  |  |  |  |  | 0.974 | 0.979 | 1.01 | 0.893 | 0.997 |  |  |  |  |  | 0.28 | 0.272 | 0.278 | 0.232 | 0.299
3 | A-427 | 0.981 | 1.05 | 1 | 1.05 | 1.04 | 1.09 | 1.09 | 1.01 | 1.03 | 1.04 | 0.587 | 0.705 | 0.823 | 0.676 | 0.698 | 0.556 | 0.594 | 0.551 | 0.502 | 0.511
4 | ABC-1 | 0.32 | 0.342 | 0.349 | 0.271 | 0.304 | 1.15 | 1.16 | 1.32 | 0.932 | 1.05 | 0.631 | 0.717 | 0.666 | 0.662 | 1.09 | 1.09 |  | 1.26 | 0.928 | 1.05
5 | BEN | 0.918 | 0.651 | 0.882 | 0.957 | 0.905 | 0.7 | 0.694 | 0.832 | 0.705 | 0.804 | 0.618 | 0.704 | 0.648 | 0.642 | 0.636 | 0.727 | 0.707 | 0.666 | 0.736 | 0.919
6 | CAL-12T | 1.2 | 0.81 | 0.608 | 0.56 | 0.644 | 0.694 | 0.757 | 0.714 | 0.546 | 0.638 | 0.631 | 0.594 | 0.546 | 0.491 | 0.505 |  |  |  |  | 
7 | COR-L23 | 1.1 | 1.04 | 1.11 | 1.03 | 0.988 | 1.22 | 0.916 | 0.877 | 0.933 | 1.11 |  |  |  |  |  | 0.504 | 0.436 | 0.468 | 0.47 | 0.529
8 | COR-L 105 | 0.3 | 0.31 | 0.334 | 0.262 | 0.362 | 0.311 | 0.385 | 0.344 | 0.31 | 0.343 |  |  |  |  |  | 0.552 | 0.433 | 0.415 | 0.338 | 0.356
9 | Calu-6 | 1.15 | 0.97 | 1.13 | 1 | 1.08 | 1.15 | 1.12 | 1.08 | 1.09 | 1.12 |  |  |  |  |  |  |  |  |  | 
10 | ChaGo-K-1 | 1.18 | 0.92 | 0.8 | 0.924 | 1.07 |  |  |  |  |  | 0.801 | 0.868 | 0.827 | 0.871 | 0.827 | 0.558 | 0.538 | 0.525 | 0.525 | 0.469
